Results published in ChEMBL document CHEMBL1201862, “PubChem BioAssay data set” (2004).
Calls of active or inactive are those of the source.

Legend:
[1] = target: Glyceraldehyde-3-phosphate dehydrogenase (Homo sapiens, UniProt P04406)
[2] = target: T1, Alkaline phosphatase, tissue-nonspecific isozyme (Homo sapiens, UniProt P05186); assay: human TNAP enzyme inhibitors, SAR follow-up, biochemical, luminescent, dose response (AID 1056)
T1 sequence (P05186 whole entry): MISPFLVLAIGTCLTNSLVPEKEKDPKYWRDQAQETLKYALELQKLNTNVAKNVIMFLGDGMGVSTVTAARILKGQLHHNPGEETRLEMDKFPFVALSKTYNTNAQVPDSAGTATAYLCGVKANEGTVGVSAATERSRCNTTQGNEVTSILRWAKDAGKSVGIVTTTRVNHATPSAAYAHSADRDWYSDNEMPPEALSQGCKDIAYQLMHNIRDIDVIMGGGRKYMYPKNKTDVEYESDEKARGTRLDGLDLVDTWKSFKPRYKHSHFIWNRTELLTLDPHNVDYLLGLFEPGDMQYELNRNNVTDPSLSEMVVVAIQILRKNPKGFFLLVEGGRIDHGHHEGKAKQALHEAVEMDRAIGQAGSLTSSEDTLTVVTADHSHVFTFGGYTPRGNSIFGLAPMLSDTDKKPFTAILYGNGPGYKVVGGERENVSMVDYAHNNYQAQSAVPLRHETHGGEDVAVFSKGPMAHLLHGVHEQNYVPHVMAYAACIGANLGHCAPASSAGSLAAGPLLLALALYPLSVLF

[3] = target: Peroxisome proliferator-activated receptor gamma/Nuclear receptor coactivator 1 (Homo sapiens, UniProt P37231); assay: (§1) TR-FRET dose response biochemical High Throughput Screening assay for agonists of the steroid receptor coactivator 1 (SRC-1) recruitment by the peroxisome proliferator-activated receptor gamma (PPAR gamma): non-selective agonists. [Related pubchem assays (depositor defined):AID1300, AID1808, AID504735, AID631]; format: protein assay
Peroxisome proliferator-activated receptor gamma/Nuclear receptor coactivator 1, sequence (P37231 whole entry): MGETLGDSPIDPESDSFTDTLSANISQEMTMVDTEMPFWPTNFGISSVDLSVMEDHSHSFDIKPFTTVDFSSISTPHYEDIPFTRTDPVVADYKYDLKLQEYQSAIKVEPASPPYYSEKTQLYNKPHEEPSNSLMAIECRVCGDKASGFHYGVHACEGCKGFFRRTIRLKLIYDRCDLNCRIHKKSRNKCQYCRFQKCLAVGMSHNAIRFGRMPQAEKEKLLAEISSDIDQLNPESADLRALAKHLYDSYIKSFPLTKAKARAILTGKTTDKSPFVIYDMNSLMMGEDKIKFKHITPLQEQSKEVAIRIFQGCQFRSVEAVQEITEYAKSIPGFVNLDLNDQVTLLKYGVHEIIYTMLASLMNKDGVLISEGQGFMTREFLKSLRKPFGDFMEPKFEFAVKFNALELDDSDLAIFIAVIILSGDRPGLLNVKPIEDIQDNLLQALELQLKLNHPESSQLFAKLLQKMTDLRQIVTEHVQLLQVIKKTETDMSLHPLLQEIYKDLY
Peroxisome proliferator-activated receptor gamma/Nuclear receptor coactivator 1, sequence (Q15788 whole entry, further chain): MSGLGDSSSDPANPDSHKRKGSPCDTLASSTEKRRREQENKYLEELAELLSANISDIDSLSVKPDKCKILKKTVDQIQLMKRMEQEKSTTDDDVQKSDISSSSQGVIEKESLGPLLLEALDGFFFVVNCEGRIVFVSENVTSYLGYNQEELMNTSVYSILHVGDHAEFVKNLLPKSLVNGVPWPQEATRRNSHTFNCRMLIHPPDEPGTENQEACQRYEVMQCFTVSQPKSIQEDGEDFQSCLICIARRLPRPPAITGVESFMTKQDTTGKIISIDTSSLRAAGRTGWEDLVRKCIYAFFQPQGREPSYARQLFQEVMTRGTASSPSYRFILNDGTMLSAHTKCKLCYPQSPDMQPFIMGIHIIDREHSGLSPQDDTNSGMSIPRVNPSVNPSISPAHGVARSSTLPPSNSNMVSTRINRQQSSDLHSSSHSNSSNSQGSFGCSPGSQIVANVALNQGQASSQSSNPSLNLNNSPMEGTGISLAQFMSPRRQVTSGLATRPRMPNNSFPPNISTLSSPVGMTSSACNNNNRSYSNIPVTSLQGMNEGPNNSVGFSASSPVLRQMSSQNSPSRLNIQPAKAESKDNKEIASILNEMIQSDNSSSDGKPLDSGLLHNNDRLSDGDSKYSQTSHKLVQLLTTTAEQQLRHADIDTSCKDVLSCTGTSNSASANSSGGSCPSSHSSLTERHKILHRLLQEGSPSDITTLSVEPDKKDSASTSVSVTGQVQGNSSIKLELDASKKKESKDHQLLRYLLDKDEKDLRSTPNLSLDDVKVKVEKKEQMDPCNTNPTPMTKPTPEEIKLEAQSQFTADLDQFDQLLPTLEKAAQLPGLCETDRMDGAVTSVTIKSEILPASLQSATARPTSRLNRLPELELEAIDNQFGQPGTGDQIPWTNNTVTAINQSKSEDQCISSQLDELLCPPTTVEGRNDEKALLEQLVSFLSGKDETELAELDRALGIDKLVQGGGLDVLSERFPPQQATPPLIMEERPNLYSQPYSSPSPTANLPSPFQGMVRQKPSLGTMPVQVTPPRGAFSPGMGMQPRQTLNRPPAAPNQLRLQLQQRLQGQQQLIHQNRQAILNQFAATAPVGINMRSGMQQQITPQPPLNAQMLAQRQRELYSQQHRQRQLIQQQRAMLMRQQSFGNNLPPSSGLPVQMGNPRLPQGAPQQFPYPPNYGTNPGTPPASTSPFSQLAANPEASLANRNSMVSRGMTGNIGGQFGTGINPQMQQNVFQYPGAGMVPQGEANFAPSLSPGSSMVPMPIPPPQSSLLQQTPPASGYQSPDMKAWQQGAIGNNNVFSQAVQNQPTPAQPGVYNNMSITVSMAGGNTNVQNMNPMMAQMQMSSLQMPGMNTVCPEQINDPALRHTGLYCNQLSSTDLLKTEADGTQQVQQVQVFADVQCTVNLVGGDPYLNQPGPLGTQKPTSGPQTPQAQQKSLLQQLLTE

[4] = target: Peroxisome proliferator-activated receptor gamma/Nuclear receptor coactivator 3 (Homo sapiens, UniProt P37231); assay: as §1, with “3 (SRC-3)” for “1 (SRC-1)”, “assays: 1301 (Confirmation screen.), 1048 (Primary screen.)]” for “assays (depositor defined):AID1300, AID1808, AID504735, AID631]”; format: functional
Peroxisome proliferator-activated receptor gamma/Nuclear receptor coactivator 3, sequence (P37231 whole entry): as the sequence (P37231 whole entry) above
Peroxisome proliferator-activated receptor gamma/Nuclear receptor coactivator 3, sequence (Q9Y6Q9 whole entry, further chain): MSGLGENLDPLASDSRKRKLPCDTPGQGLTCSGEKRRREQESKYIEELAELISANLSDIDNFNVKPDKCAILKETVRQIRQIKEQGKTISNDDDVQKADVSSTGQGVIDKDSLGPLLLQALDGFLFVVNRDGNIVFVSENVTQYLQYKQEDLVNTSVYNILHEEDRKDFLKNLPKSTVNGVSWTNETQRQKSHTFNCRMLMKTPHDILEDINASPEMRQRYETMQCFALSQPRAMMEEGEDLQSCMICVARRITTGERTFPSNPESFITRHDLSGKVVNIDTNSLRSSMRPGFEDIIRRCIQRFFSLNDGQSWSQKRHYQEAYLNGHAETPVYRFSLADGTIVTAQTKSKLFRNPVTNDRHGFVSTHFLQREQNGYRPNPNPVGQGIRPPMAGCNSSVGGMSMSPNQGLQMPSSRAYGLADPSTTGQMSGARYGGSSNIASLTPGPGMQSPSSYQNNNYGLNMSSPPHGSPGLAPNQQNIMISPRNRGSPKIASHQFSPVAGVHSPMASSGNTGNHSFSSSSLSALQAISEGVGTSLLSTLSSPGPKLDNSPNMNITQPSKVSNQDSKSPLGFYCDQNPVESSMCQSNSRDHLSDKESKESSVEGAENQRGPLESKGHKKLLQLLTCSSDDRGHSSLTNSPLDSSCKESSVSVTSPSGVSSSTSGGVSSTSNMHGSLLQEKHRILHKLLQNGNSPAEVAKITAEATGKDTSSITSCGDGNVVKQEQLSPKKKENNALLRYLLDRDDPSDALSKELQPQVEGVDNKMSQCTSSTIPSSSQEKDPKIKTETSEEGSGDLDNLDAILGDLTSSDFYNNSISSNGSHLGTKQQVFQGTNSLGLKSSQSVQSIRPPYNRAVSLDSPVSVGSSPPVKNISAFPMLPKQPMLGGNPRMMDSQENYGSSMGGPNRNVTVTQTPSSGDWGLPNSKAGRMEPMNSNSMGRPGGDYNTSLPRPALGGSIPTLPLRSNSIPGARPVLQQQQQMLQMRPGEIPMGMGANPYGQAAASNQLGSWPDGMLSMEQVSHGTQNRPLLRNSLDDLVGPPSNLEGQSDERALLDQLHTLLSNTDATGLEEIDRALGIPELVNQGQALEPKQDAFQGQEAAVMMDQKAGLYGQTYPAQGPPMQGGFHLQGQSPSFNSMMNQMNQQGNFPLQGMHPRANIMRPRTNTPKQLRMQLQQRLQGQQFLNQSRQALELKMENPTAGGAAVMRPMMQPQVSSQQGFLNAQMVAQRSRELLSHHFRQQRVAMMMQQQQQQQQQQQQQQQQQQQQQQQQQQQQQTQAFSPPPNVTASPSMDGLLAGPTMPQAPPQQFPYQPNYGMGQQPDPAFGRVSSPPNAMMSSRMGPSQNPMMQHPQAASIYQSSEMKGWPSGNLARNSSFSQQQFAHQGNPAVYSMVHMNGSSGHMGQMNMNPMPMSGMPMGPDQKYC

[5] = target: Peroxisome proliferator-activated receptor gamma/Nuclear receptor coactivator 2 (Homo sapiens, UniProt P37231); assay: TR-FRET dose response biochemical High Throughput Screening assay for agonists of the steroid receptor coactivator 2 (SRC-2) recruitment by the peroxisome proliferator-activated receptor gamma (PPAR gamma): non-selective agonists. [Related pubchem assays: 1297, 1032 ]; format: functional
[6] = target: DNA dC->dU-editing enzyme APOBEC-3A (Homo sapiens, UniProt P31941); assay: APOBEC3A DNA deaminase inhibitors, dose response, biochemical (AID 504722); format: functional
[7] = target: DNA dC->dU-editing enzyme APOBEC-3G (Homo sapiens, UniProt Q9HC16); assay: Dose Response confirmation of small molecule APOBEC3G DNA Deaminase Inhibitors via a fluorescence-based single-stranded DNA deaminase assay. [Related pubchem assays (depositor defined):AID493012, AID493028]; format: functional
DNA dC->dU-editing enzyme APOBEC-3G, sequence (Q9HC16 whole entry): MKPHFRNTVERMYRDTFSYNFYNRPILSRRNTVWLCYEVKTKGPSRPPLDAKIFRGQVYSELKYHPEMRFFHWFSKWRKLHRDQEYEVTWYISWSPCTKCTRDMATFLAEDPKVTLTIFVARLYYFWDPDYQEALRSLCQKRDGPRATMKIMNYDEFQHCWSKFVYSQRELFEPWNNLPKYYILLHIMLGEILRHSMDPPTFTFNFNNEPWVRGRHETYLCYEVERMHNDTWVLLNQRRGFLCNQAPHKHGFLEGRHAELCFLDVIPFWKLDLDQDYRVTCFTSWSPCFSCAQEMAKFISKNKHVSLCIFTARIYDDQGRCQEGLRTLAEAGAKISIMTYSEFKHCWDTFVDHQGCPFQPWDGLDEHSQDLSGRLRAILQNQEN

[8] = target: T2, Polyadenylate-binding protein 1 (Homo sapiens, UniProt P11940); assay: PABP1 MLLE–PAM2 interaction inhibitors, dose response, miRNA deadenylation inhibitor project, biochemical, fluorescence polarization, Cy5-PAM2 peptide, secondary (AID 602260); format: functional; conditions: read-out: IC50_Mean
T2 sequence (P11940 whole entry): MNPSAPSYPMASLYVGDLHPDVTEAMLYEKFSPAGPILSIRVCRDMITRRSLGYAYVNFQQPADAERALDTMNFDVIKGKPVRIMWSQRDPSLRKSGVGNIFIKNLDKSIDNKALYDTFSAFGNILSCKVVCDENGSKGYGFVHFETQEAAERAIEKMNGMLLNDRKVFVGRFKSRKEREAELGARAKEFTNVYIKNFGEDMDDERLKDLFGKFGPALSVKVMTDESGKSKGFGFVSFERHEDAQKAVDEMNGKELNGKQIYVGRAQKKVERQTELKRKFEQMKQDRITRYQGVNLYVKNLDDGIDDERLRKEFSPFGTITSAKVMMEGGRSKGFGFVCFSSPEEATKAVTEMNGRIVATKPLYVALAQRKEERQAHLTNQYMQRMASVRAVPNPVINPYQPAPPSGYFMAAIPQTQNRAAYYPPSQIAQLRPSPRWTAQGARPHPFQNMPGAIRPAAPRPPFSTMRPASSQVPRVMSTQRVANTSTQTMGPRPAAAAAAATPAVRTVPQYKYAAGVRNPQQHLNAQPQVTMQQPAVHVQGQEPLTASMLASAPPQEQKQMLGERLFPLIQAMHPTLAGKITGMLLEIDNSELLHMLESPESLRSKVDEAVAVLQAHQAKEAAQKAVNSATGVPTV

[9] = target: T2, Polyadenylate-binding protein 1; assay: PABP1 MLLE–PAM2 binding inhibitor potency, dose response, biochemical, fluorescence polarization, FITC-PAM2 peptide (AID 602259); format: functional; conditions: read-out: IC50_Mean
[10] = target: T3, Adenosylmethionine-8-amino-7-oxononanoate aminotransferase (Mycobacterium tuberculosis, UniProt P9WQ81); assay: Mycobacterium tuberculosis BioA enzyme inhibitor Measured in Biochemical System Using Plate Reader - 2163-02_Inhibitor_Dose_CherryPick_Activity.; format: functional, Mycobacterium tuberculosis UT205
T3 sequence (P9WQ81 whole entry): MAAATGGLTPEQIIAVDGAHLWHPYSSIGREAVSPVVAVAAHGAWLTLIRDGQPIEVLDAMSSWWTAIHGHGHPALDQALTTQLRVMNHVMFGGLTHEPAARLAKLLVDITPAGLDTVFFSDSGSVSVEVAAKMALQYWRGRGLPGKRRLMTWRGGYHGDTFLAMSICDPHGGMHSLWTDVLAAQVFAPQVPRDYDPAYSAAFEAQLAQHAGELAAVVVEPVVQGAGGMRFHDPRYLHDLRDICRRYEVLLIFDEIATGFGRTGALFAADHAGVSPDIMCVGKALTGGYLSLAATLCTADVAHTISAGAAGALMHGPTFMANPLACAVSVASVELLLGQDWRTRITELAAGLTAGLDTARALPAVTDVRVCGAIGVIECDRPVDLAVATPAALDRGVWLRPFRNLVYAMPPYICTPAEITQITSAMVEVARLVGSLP

[11] = target: DNA (cytosine-5)-methyltransferase 1 (Homo sapiens, UniProt P26358); assay: DNMT1 methyltransferase inhibitors, confirmation, biochemical, fluorescent molecular beacon (AID 602386); format: functional
[12] = target: T4, Ubiquitin-conjugating enzyme E2 N (Homo sapiens, UniProt P61088); format: functional;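 note: Dose-response confirmation in a TR-FRET assay detecting UBC13-driven polyubiquitin chain formation, inhibition measured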
T4 sequence (P61088 whole entry): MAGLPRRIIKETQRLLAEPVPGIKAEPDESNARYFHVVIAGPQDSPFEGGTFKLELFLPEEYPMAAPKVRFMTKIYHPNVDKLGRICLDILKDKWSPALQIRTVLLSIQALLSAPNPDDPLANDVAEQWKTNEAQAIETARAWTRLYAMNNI

[13] = target: Major prion protein (Homo sapiens, UniProt P04156); format: functional, cell-based
[14] = cells
[15] = target: T5, Short transient receptor potential channel 4 (Mus musculus, UniProt Q9QUQ5); assay: mouse TRPC4 channel activators, dose response, cell-based, HEK293 TRPC4/mu-opioid, Fluo-4 calcium (AID 434937); format: functional
T5 sequence (Q9QUQ5 whole entry): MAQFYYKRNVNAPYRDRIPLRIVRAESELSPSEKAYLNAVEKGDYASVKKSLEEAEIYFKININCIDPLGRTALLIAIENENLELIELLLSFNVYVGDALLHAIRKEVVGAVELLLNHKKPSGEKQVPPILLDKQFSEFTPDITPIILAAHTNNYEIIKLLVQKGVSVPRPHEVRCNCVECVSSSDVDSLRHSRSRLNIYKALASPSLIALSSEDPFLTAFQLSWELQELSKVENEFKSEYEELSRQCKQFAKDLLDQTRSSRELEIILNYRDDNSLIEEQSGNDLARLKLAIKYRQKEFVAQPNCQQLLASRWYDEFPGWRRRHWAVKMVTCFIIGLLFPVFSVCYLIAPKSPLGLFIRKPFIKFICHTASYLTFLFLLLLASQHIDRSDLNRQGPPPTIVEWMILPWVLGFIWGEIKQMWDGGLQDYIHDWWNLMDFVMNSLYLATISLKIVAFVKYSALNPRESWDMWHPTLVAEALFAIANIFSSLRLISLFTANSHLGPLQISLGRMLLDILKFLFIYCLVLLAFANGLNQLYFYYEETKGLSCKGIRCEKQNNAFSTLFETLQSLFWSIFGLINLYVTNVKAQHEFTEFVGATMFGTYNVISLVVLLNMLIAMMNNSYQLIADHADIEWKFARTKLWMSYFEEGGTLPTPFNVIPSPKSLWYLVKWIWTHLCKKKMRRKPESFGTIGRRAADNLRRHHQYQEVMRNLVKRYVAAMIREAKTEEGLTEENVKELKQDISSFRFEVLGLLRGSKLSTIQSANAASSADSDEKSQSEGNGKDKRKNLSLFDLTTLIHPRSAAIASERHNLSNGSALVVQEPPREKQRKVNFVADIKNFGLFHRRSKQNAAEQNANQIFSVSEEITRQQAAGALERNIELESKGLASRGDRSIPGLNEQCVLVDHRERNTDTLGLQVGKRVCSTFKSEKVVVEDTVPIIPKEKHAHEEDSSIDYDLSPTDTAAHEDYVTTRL

[16] = inhibitors of firefly luciferase expression or activity, dose response, H4 neuroglioma cells, luminescence (AID 1990); format: functional, cell-based
[17] = Luminescence Cell-Based Dose Response HTS to Identify Inhibitors of 5'UTR Stem-Loop Driven Prion Protein mRNA Translation in H4 Neuroglioblastoma Cells. [Related pubchem assays: 1827 (Project Summary), 1813 (Primary HTS)]; format: functional
[18] = inhibitors of SNCA 5'UTR-driven reporter translation, confirmation, H4 neuroglioma cells, luminescence (AID 1988); format: functional, cell-based
[19] = Shn3 3'UTR reporter inhibitors, dose response, cell-based, Clone20 osteoblasts, firefly luciferase, cherry-picked (AID 624132); format: functional;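 note: firefly luciferase luminescence from reporter carrying the Shn3 3'UTR in osteoblasts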
[20] = HepG2 cell cytotoxicity, dose response, cytotoxicity control for Shn3 inhibitor project, CellTiter-Glo, cherry-picked (AID 624134); format: functional, cell-based
[21] = control 3'UTR Renilla luciferase suppression, dose response, counter-screen for Shn3 inhibitor project, cell-based, Clone20-Shn3RL, cherry-picked (AID 624133); format: functional
[22] = Fluorescence-based cell-based high throughput dose response assay for inhibitors of the interaction of nucleotide-binding oligomerization domain containing 2 (NOD2) and the receptor-interacting serine-threonine kinase 2 (RIPK2).; format: functional; conditions: Homo sapiens
[23] = target: SWI/SNF-related matrix-associated actin-dependent regulator of chromatin subfamily A member 2 (Homo sapiens, UniProt P51531); assay: Luminescence-based cell-based high throughput dose response assay to identify activators of the function of SWI/SNF related, matrix associated, actin dependent regulator of chromatin, subfamily a, member 2 (SMARCA2, BRM).; format: functional
[24] = Counterscreen for activators of the function of SWI/SNF related, matrix associated, actin dependent regulator of chromatin, subfamily a, member 2 (SMARCA2, BRM): Luminescence-based cell-based high throughput dose response assay to identify non-selective compounds using the VP16 reporter assay.; format: functional
[25] = target: T6, DNA repair protein RAD52 homolog (Homo sapiens, UniProt P43351); format: functional, biochemical
T6 sequence (P43351 whole entry): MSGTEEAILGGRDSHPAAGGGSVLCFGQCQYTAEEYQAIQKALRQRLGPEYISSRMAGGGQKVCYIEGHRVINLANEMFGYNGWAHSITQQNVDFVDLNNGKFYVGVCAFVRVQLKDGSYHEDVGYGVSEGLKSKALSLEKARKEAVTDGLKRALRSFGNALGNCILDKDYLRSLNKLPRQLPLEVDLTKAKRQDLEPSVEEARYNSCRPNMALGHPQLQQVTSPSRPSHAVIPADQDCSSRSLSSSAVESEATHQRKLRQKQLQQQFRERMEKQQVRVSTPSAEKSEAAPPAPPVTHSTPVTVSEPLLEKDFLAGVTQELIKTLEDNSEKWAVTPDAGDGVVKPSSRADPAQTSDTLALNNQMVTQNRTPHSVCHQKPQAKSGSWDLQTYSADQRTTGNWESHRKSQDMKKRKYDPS

[26] = target: T7, Carboxy-terminal domain RNA polymerase II polypeptide A small phosphatase 1 (Homo sapiens, UniProt Q9GZU7); assay: inhibitors of CTDSP1, concentration-response testing, biochemical assay, absorbance-based, actives from ultra-high-throughput screening (AID 540297); format: functional
T7 sequence (Q9GZU7 whole entry): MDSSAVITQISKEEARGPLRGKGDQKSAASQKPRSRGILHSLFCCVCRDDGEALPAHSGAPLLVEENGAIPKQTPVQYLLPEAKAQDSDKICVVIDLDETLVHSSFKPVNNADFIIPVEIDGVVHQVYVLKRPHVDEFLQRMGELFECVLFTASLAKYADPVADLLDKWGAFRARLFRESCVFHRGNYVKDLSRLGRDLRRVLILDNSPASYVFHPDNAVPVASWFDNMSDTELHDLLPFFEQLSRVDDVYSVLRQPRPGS

## CCOc1ccc(C(C)C)cc1S(=O)(=O)Nc1cccnc1
[1]
  IC50: > 100 µM (not active)
[2]
  IC50: 3.52 µM (active)

## Fc1ccc(COc2cccc(-c3nnc(S)o3)c2)cc1
[3]
  EC50: 9.44 µM (active)
[4]
  EC50: > 79.4 µM (not active)
[5]
  EC50: 8.05 µM (active)

## O=S(=O)(c1ccc(=S)[nH]c1)N1CCOCC1
[6]
  IC50: > 100 µM (inactive)
[7]
  IC50: 12.6 µM (active)
[8]
  IC50: > 66 µM (inactive)
[9]
  IC50: > 66 µM (inactive)

## O=C(Nc1ccc(NS(=O)(=O)c2ccccc2)cc1)c1cccnc1
[10]
  AC50: 5.75 µM (active)

## CCOC(=O)C1CCCN(C(=O)c2cc(-c3ccco3)nc3ccccc23)C1 (stereo not given)
[11]
  IC50: 6.42 µM (active)

## O=C(Cc1cccs1)NCCSc1c(-c2ccc(Cl)cc2)[nH]c2ccccc12
[3]
  EC50: 12.3 µM (inactive)
[4]
  EC50: > 2.94 µM (active)
[5]
  EC50: 15.6 µM (not active)

## O=C1CCCc2c1cc(C(=O)NCCCN1CCOCC1)c(=O)n2-c1ccc(Cl)cc1
[10]
  AC50: 10.1 µM (active)

## Sc1[nH]cnc2c3ccccc3nc1-2
[6]
  IC50: > 100 µM (inactive)
[12]
  IC50: > 20 µM (inactive)
[7]
  IC50: 3.65 µM (active)
[13]
  IC50: 1.5 µM (active)
[14]
  IC50: > 138 µM (inactive)

## CC(C)c1ccc(NC(=S)N(C)CCc2ccccn2)cc1
[15]
  EC50: 5.96 µM (active)

## COc1ccc(OC)c2sc(N(CCN(C)C)C(=O)/C=C/c3cccs3)nc12
[16]
  EC50: 8.13 µM (active)
[17]
  EC50: 3.18 µM (active)
[18]
  EC50: 6.88 µM (active)
[19]
  AC50: 12.8 µM (active)
[20]
  AC50: 19.1 µM (active)
[21]
  AC50: 25.8 µM (active)
[22]
  IC50: 13.3 µM (inactive)
[23]
  EC50: > 91.1 µM (inactive)
[24]
  EC50: > 91.1 µM (inactive)
[25]
  AC50: 10.6 µM (active)

## Fc1ccc(C(c2nnnn2Cc2cccs2)N2CCN(C3CCCCC3)CC2)cc1 (stereo not given)
[15]
  EC50: 1.19 µM (active)

## CCOC(=O)C1CCN(C(=O)Nc2ccc3snnc3c2)CC1
[10]
  AC50: 0.85 µM (active)

## CCCCN(CC)CCNC(=O)c1cc2c(C)nc3ccccc3c2o1
[15]
  EC50: 0.944 µM (active)

## c1cncc(-c2nnn[nH]2)c1
[1]
  IC50: > 100 µM (not active)
[2]
  IC50: > 100 µM (inactive)

## COC(=O)c1sccc1-c1ccc(/C=N/OC(=O)c2ccccc2)o1
[3]
  EC50: 12.2 µM (inactive)
[4]
  EC50: > 79.4 µM (not active)
[5]
  EC50: 12.7 µM (not active)

## COc1ccc(/C(C)=N/NC(=O)CNC(=O)/C=C\c2ccco2)cc1
[26]
  IC50: 6.67 µM (active)
